# In EP0497091A1, “Bridged cyclic ketal derivatives” (GLAXO GROUP LIMITED, priority 1991, dated 1992):
# Where a name gives a salt, the structure may show the parent alone.
# Target: T1, squalene synthase (Rattus norvegicus, UniProt Q02769)
# T1 construct: from tissue; host or cells: rat liver homogenate
# T1 sequence (Q02769 1-416): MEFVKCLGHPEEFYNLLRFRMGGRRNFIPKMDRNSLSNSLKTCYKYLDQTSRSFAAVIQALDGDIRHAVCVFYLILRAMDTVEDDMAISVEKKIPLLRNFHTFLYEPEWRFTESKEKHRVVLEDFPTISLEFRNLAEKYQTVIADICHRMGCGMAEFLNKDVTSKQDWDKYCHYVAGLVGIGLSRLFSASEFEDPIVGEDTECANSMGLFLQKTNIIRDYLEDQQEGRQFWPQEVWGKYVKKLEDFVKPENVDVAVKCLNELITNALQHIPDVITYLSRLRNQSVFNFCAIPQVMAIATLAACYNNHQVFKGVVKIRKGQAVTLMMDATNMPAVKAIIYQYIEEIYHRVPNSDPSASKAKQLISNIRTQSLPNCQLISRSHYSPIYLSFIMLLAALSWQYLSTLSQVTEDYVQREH
# Assay: Inhibition of squalene synthase ([14C]squalene production from [2-14C]farnesylpyrophosphate)
# Type: biochemical
# Settings: not given
# Excerpt: A. Biller et al. in J. […] [¹⁴C]squalene is separated from unreacted substrate on thin layer chromatography plates and determined by liquid scintillation counting. […] Acta, Volume 877, 50-60 (1986) and modified to include measurement of cholesterol by high performance liquid chromatography (h.p.l.c.). […] A. […] [¹⁴C] Squalene was separated from unreacted substrate on thin layer chromatography plates and determined by liquid scintillation counting. Inhibition of squalene synthase was quantified by incubating rat liver homogenate with various concentrations of the test compound in the presence of [2-¹⁴C] farnesylpyrophosphate. The concentration of compound giving 50% inhibition of [¹⁴C] squalene production in a 30 minute assay was taken as the IC₅₀ value.
row,Compound,IC50 [nM]
1,"C=C(CC[C@]12O[C@H](C(=O)O)[C@@](O)(C(=O)O)[C@](C(=O)O)(O1)[C@H](OC(=O)CCCCCCCCC)[C@H]2O)[C@@H](OC(C)=O)[C@H](C)Cc1ccccc1 (relative stereo) [6-decanoate in Example 30, [1S-[1α(4R*,5S*),3α,4β,5α,6α,7β]] 1-(4-acetyloxy-5-methyl-3-methylene-6-phenylhexyl)-4,6,7-trihydroxy-2,8-dioxabicyclo[3.2.1]octane-3,4,5-tricarboxylic acid, 6-decanoate]",< 100
2,"C=C(CC[C@]12O[C@H](C(=O)O)[C@@](O)(C(=O)O)[C@](C(=O)O)(O1)[C@H](OC(=O)/C=C/[C@@H](C)C[C@@H](C)CC)[C@H]2O)[C@H](O)[C@H](C)Cc1ccccc1 (relative stereo) [Example 1, [1S-[1α(4S*,5S*),3α,4β,5α,6α(2E,4R*,6R*),7β]] 1-(4-Hydroxy-5-methyl-3-methylene-6-phenylhexyl)-4,6,7-trihydroxy-2,8-dioxabicyclo[3.2.1]octane-3,4,5-tricarboxylic acid, 6-(4,6-dimethyl-2-octenoate)]",< 100
3,"CC[C@H](C)C[C@H](C)CCC(=O)O[C@@H]1[C@@H](O)[C@@]2(C/C=C(\C)[C@@H](OC(C)=O)[C@H](C)Cc3ccccc3)O[C@H](C(=O)O)[C@@](O)(C(=O)O)[C@]1(C(=O)O)O2 (relative stereo) [Example 11, [1S-[1α[(E),4R*,5S*],3α,4β,5α,6α(4S*,6R*),7β]] 1-(4-Acetyloxy-3,5-dimethyl-6-phenyl-2-hexenyl)-4,6,7-trihydroxy-2,8-dioxabicyclo[3.2.1]octane-3,4,5-tricarboxylic acid, 6-(4,6-dimethyloctanoate)]",< 100
4,"C=C(CCC12OC(C(=O)O)C(O)(C(=O)O)C(C(=O)O)(O1)C(OC(C)=O)C2O)C(OC(C)=O)C(C)Cc1ccccc1 (stereo not drawn) [Compound 1 in Example 28, [1S-[1α(4R*,5S*),3α,4β,5α,6α,7β]] 1-(4-Acetyloxy-5-methyl-3-methylene-6-phenylhexyl)-4,6,7-trihydroxy-2,8-dioxabicyclo[3.2.1]octane-3,4,5-tricarboxylic acid, 6-acetate]",< 100
5,"C=C(CC[C@]12O[C@H](C(=O)O)[C@@](O)(C(=O)O)[C@](C(=O)O)(O1)[C@H](OC(=O)/C=C/[C@@H](C)C[C@@H](C)CC)[C@H]2O)C(=O)[C@H](C)Cc1ccccc1 [Example 3, [1S-[1α(5S^*),3α,4β,5α,6α(2E,4R^*,6R^*),7β]] 1-(5-Methyl-3-methylene-4-oxo-6-phenylhexyl)-4,6,7-trihydroxy-2,8-dioxabicyclo[3.2.1]octane-3,4,5-tricarboxylic acid, 6-(4,6-dimethyl-2-octenoate)]",< 100
6,"CCC(C)CC(C)CCC(=O)OC1C(O)C2(CCC(=O)C(O)C(C)Cc3ccccc3)OC(C(=O)O)C(O)(C(=O)O)C1(C(=O)O)O2 (stereo not drawn) [Example 17, [1S-[1α(4R*,5S*),3α,4β,5α,6α(4S*,6R*),7β]] 1-(4-Hydroxy-5-methyl-3-oxo-6-phenylhexyl)-4,6,7-trihydroxy-2,8-dioxobicyclo[3.2.1]octane-3,4,5-tricarboxylic acid, 6-(4,6-dimethyloctanoate)]",< 100
7,"CCC(C)CC(C)CCC(=O)OC1C(O)C2(CCCC(=O)CCc3ccccc3)OC(C(=O)O)C(O)(C(=O)O)C1(C(=O)O)O2 (stereo not drawn) [Example 19, [1S-[1α,3α,4β,5α,6α(4S*,6R*),7β]] 1-(4-Oxo-6-phenylhexyl)-4,6,7-trihydroxy-2,8-dioxabicyclo[3.2.1]octane-3,4,5-tricarboxylic acid, 6-(4,6-dimethyloctanoate)]",< 100
8,"CCC(C)CC(C)CCC(=O)OC1C(O)C2(CCCC(=O)C(C)Cc3ccccc3)OC(C(=O)O)C(O)(C(=O)O)C1(C(=O)O)O2 (stereo not drawn) [Example 20, [1S-[1α(5R*S*),3α,4β,5α,6α(4S*,6R*),7β]] 1-(5-Methyl-4-oxo-6-phenylhexyl)-4,6,7-trihydroxy-2,8-dioxabicyclo[3.2.1]octane-3,4,5-tricarboxylic acid, 6-(4,6-dimethyloctanoate)]",< 100
9,"CCC(C)CC(C)CCC(=O)OC1C(O)C2(CCC(C)C(=O)CCc3ccccc3)OC(C(=O)O)C(O)(C(=O)O)C1(C(=O)O)O2 (stereo not drawn) [Example 21, [1S-[1α[3R*(S*)],3α,4β,5α,6α(4S*,6R*),7β]] 1-(3-Methyl-4-oxo-6-phenylhexyl)-4,6,7-trihydroxy-2,8-dioxabicyclo[3.2.1]octane-3,4,5-tricarboxylic acid, 6-(4,6-dimethyloctanoate)]",< 100
10,"C=C(CCC12OC(C(=O)O)C(OC(C)=O)(C(=O)O)C(C(=O)O)(O1)C(OC(=O)C=CC(C)CC(C)CC)C2OC(C)=O)C(OC(C)=O)C(C)Cc1ccccc1 (stereo not drawn) [Example 25, [1S-[1α(4R*,5S*),3α,4β,5α,6α(2E,4R*,6R*),7β]] 1-(4-Acetyloxy-5-methyl-3-methylene-6-phenylhexyl)-4,7-diacetyloxy-6-hydroxy-2,8-dioxabicyclo[3.2.1]octane-3,4,5-tricarboxylic acid, 6-(4,6-dimethyl-2-octenoate)]",< 100
11,"C=C(CCC12OC(C(=O)O)C(O)(C(=O)O)C(C(=O)O)(O1)C(OC(=O)C=CC(C)CC(C)CC)C2OC(=O)OC)C(OC(C)=O)C(C)Cc1ccccc1 (stereo not drawn) [Example 26, [1S-[1α(4R*,5S*),3α,4β,5α,6α(2E,4R*,6R*),7β]] 1-(4-Acetyloxy-5-methyl-3-methylene-6-phenylhexyl)-4,6-dihydroxy-7-[(methoxycarbonyl)oxy]-2,8-dioxabicyclo[3.2.1]octane-3,4,5-tricarboxylic acid, 6-(4,6-dimethyl-2-octenoate)]",< 100

# Same assay, conditions: rat liver homogenate; [2-¹⁴C] farnesylpyrophosphate as substrate; 50% inhibition of [¹⁴C] squalene production in a 30 minute assay; read-out: IC₅₀
row,Compound,IC50 [nM]
1,"CCC(C)CC(C)/C=C/C(=O)OC1C(O)C2(CCC(C)C(O)C(C)Cc3ccccc3)OC(C(=O)O)C(O)(C(=O)O)C1(C(=O)O)O2 (single isomer, unassigned) [Example 8, [1S-[1α[3R*(S*),4R*(S*),5S*],3α,4β,5α,6α(2E,4R*,6R*),7β]] 1-(4-Hydroxy-3,5-dimethyl-6-phenylhexyl)-4,6,7-trihydroxy-2,8-dioxabicyclo[3.2.1]octane-3,4,5-tricarboxylic acid, 6-(4,6-dimethyl-2-octenoate), isomer 3 and isomer 4]",< 100
2,"CCC(C)CC(C)CCC(=O)OC1C(O)C2(CCC(C)C(=O)C(C)Cc3ccccc3)OC(C(=O)O)C(O)(C(=O)O)C1(C(=O)O)O2 (single isomer, unassigned; isomer 1) [isomer 1 in Example 16, [1S-[1α(3R*(S*),5S*),3α,4β,5α,6α(4S*,6R*),7β]] 1-(3,5-Dimethyl-4-oxo-6-phenylhexyl)-4,6,7-trihydroxy-2,8-dioxabicyclo[3.2.1]octane-3,4,5-tricarboxylic acid, 6-(4,6-dimethyloctanoate), 3,4,5-tripotassium salt]",< 100
3,"COC(=O)OC1C(O)C2(CCC(C)C(OC(C)=O)C(C)Cc3ccccc3)OC(C(=O)O)C(O)(C(=O)O)C1(C(=O)O)O2 (stereo not drawn) [Compound (I) in Example 65, [1S-[1α(3R*S*,4S*,5S*),3α,4β,5α,6α,7β]] 1-(4-Acetyloxy-3,5-dimethyl-6-phenylhexyl)-4,7-dihydroxy-6-[[(methoxycarbonyl]oxy]-2,8-dioxabicyclo[3.2.1]octane-3,4,5-tricarboxylic acid]",< 100
4,"C=C(CCC12OC(C(=O)O)C(O)(C(=O)O)C(C(=O)O)(O1)C(OC(=O)CCCCC(C)=O)C2O)C(OC(C)=O)C(C)Cc1ccccc1 (stereo not drawn) [Example 53, [1S-[1α(4R*,5S*),3α,4β,5α,6α,7β]] 1-(4-Acetyloxy-5-methyl-3-methylene-6-phenylhexyl)-4,6,7-trihydroxy-2,8-dioxabicyclo[3.2.1]octane-3,4,5-tricarboxylic acid, 6-(6-oxo-heptanoate)]",< 100

# Tested on: clinically relevant pathogens
# Assay: In vitro antifungal activity, agar plate MIC determination
# Type: cell-based
# Settings: Candida albicans
# Method: The in vitro evaluation of the anti-fungal activity of compounds of the invention can be performed by determining the minimum inhibitory concentration (MIC) which is the concentration of the test compound in a suitable medium at which growth of a particular microorganism fails to occur.
# [¹⁴C] Squalene was separated from unreacted substrate on thin layer chromatography plates and determined by liquid scintillation counting. Inhibition of squalene synthase was quantified by incubating rat liver homogenate with various concentrations of the test compound in the presence of [2-¹⁴C] farnesylpyrophosphate. The concentration of compound giving 50% inhibition of [¹⁴C] squalene production in a 30 minute assay was taken as the IC₅₀ value. […] In practice, a series of agar plates, each having the test compound incorporated at a particular concentration, was inoculated with a standard culture of a clinically relevant pathogen, for example Candida albicans, and each plate was then incubated at 37 °C for 24 to 48 hours depending on the pathogen.
row,Compound,MIC [µg/mL]
1,"C=C(CC[C@]12O[C@H](C(=O)O)[C@@](O)(C(=O)O)[C@](C(=O)O)(O1)[C@H](OC(=O)CCCCCCCCC)[C@H]2O)[C@@H](OC(C)=O)[C@H](C)Cc1ccccc1 (relative stereo) [6-decanoate in Example 30, [1S-[1α(4R*,5S*),3α,4β,5α,6α,7β]] 1-(4-acetyloxy-5-methyl-3-methylene-6-phenylhexyl)-4,6,7-trihydroxy-2,8-dioxabicyclo[3.2.1]octane-3,4,5-tricarboxylic acid, 6-decanoate]",0.1 to 31
2,"C=C(CC[C@]12O[C@H](C(=O)O)[C@@](O)(C(=O)O)[C@](C(=O)O)(O1)[C@H](OC(=O)/C=C/[C@@H](C)C[C@@H](C)CC)[C@H]2O)[C@H](O)[C@H](C)Cc1ccccc1 (relative stereo) [Example 1, [1S-[1α(4S*,5S*),3α,4β,5α,6α(2E,4R*,6R*),7β]] 1-(4-Hydroxy-5-methyl-3-methylene-6-phenylhexyl)-4,6,7-trihydroxy-2,8-dioxabicyclo[3.2.1]octane-3,4,5-tricarboxylic acid, 6-(4,6-dimethyl-2-octenoate)]",0.1 to 31
3,"CC[C@H](C)C[C@H](C)CCC(=O)O[C@@H]1[C@@H](O)[C@@]2(C/C=C(\C)[C@@H](OC(C)=O)[C@H](C)Cc3ccccc3)O[C@H](C(=O)O)[C@@](O)(C(=O)O)[C@]1(C(=O)O)O2 (relative stereo) [Example 11, [1S-[1α[(E),4R*,5S*],3α,4β,5α,6α(4S*,6R*),7β]] 1-(4-Acetyloxy-3,5-dimethyl-6-phenyl-2-hexenyl)-4,6,7-trihydroxy-2,8-dioxabicyclo[3.2.1]octane-3,4,5-tricarboxylic acid, 6-(4,6-dimethyloctanoate)]",0.1 to 31
4,"CC[C@H](C)C[C@H](C)CCC(=O)O[C@@H]1[C@@H](O)[C@@]2(CCC(C)[C@@H](O)[C@H](C)Cc3ccccc3)O[C@H](C(=O)O)[C@@](O)(C(=O)O)[C@]1(C(=O)O)O2 (relative stereo) [Example 13, [1S-[1α(3R*S*,4S*,5S*),3α,4β,5α,6α(4S*,6R*),7β]] 1-(3,5-Dimethyl-4-hydroxy-6-phenylhexyl)-4,6,7-trihydroxy-2,8-dioxabicyclo[3.2.1]octane-3,4,5-tricarboxylic acid, 6-(4,6-dimethyloctanoate)]",0.1 to 31
